These results are taken from patent US7285564B2, “Substituted 4-amino-1-(pyridylmethyl)piperidine and related compounds” (Theravance, Inc., priority 2002, dated 2007).

The subject of the test is volume-induced bladder contractions. The test can be described thus: In vivo rat bladder assay. The following applies: intravenous; anesthetized female Sprague-Dawley rats; normalized to atropine response. How it is done: Female Sprague-Dawley rats (Harlan, Indianapolis, Ind.) weighing 200 to 300 g were anesthetized with urethane (1.5 g/kg, s.c., Sigma, St. Louis, Mo.), with a supplement of 0.25 g/kg, s.c. urethane as needed. Urethane was administered at a concentration of 0.25 g/mL.
Rats were prepared for surgery by shaving the neck and abdomen and cleansing with ethanol wipes. First, an incision was made on the ventral surface. An intravenous catheter was placed by isolating and ligating the femoral vein. […]
Thereafter, an intravenous dose of the test compound was administered and changes in VIBCAmp were recorded for 15 minutes. Atropine (0.1 mg/kg) was then administered intravenously (1 mL/kg) as a positive control and VIBCAmp and data was recorded for an additional 15 minutes. […]
Alternatively, after the vehicle, increasing cumulative intravenous doses of the test compound were administered at 15 minute intervals (1 mL/kg) and changes in VIBCAmp were recorded for 15 minutes. […]
The average VIBCAmp during the 5-15 minute period after test compound and atropine was determined and subtracted from the average VIBCAmp during the 5-15 minute post-vehicle period to obtain the test compound or atropine-induced change in VIBCAmp. […]

`COc1ccncc1CN1CCC(N(CCCCCCCN2CC[C@@H](C(C(N)=O)(c3ccccc3)c3ccccc3)C2)C(C)C)CC1` [Example 1]: the “ID50 (volume-induced bladder contraction amplitude)” value is listed as “less than or equal to 0.1 mg/kg”.
